Results reported in PMC10544195, “Identification of novel SCD1 inhibitor alleviates nonalcoholic fatty liver disease: critical role of liver-adipose axis” (Cell Communication and Signaling : CCS, 2023).

System: T1, SCD1
T1 construct: IC50 assay and protein source not described; activity elsewhere measured in mouse OP9 and AML12 cells (native enzyme)
Test: SCD1 inhibition, assay not described
Type: cell-based
Details: assay system not stated

Row | IC50 [nM] | Structure (SMILES)
1 | 2800 | CNC(=O)c1cccc(NC(=O)N2CCC(Oc3ccccc3Cl)CC2)c1 [A939572]
2 | 980 | c1cc(-c2nc3ccc(OCCCN4CCCC4)cc3o2)ccc1OCCCN1CCCC1 [E6446]
